In ChEMBL document CHEMBL4414607, “Protein Stability Effects in Aggregate-Based Enzyme Inhibition” (J Med Chem, 2019):

How the values were obtained:
[1] = tested on: Bacteria
[2] = biological target: Beta-lactamase TEM (Bacteria) (UniProt P62593); assay: Binding affinity to bacterial wild type Beta-lactamase TEM-1 assessed as change in melting temperature at 100-fold molar excess compound concentration relative to apo-enzymes by SYPRO Orange dye based differential scanning fluorimetry
[3] = tested on: Bacteria; assay: Binding affinity to bacterial Beta-lactamase TEM-1 G238S mutant assessed as change in melting temperature at 100-fold molar excess compound concentration relative to apo-enzymes by SYPRO Orange dye based differential scanning fluorimetry
[4] = tested on: Bacteria; assay: Binding affinity to bacterial Beta-lactamase TEM-1 D179G mutant assessed as change in melting temperature at 100-fold molar excess compound concentration relative to apo-enzymes by SYPRO Orange dye based differential scanning fluorimetry
[5] = tested on: Bacteria; assay: Binding affinity to bacterial Beta-lactamase TEM-1 M182T/G238S mutant assessed as change in melting temperature at 100-fold molar excess compound concentration relative to apo-enzymes by SYPRO Orange dye based differential scanning fluorimetry
[6] = tested on: Bacteria; assay: Binding affinity to bacterial Beta-lactamase TEM-1 M182T mutant assessed as change in melting temperature at 100-fold molar excess compound concentration relative to apo-enzymes by SYPRO Orange dye based differential scanning fluorimetry

Sequence of Beta-lactamase TEM (Bacteria) (P62593 whole entry): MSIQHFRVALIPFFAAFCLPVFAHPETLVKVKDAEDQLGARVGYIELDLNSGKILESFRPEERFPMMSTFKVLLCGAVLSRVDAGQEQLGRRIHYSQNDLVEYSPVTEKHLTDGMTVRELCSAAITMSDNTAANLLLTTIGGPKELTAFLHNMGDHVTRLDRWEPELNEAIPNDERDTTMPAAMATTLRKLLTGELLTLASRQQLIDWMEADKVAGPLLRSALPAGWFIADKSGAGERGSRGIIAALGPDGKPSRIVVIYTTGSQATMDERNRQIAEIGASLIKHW

## CO[C@@]1(NC(=O)[C@H](C(=O)O)c2ccc(O)cc2)C(=O)N2C(C(=O)O)=C(CSc3nnnn3C)CO[C@@H]21
[1]
  ΔTm: -3.3 °C
[2]
  ΔTm: -4.5 °C
[3]
  ΔTm: -1.9 °C
[4]
  ΔTm: 2.9 °C
[5]
  ΔTm: -0.7 °C
[6]
  ΔTm: -4.1 °C
